Results: US20240417411A1, “COMPOUNDS AND METHODS FOR TREATMENT OF VIRAL INFECTIONS” (priority 2023, published 2024)

Legend:
[1] = 2 μM
in vitro [2] = assay type: in vitro ADME; conditions: human, s9, pH 7.4
How it was run: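 Test compounds at 2 μM final were incubated in a GI S9 reaction mixture, reactions being started by substrate addition. Diluted supernatants were quantified by LC/MS on a Q-Exactive using analyte/internal standard peak area ratios, with 0.1% formic acid water/acetonitrile gradient elution and 5 ppm mass tolerance.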

RSV-Luc5 = assay: microbe, parasite or virus in culture; assay type: cell-based; conditions: human respiratory syncytial virus, NHBE, 72 h, read-out: RSV NHBE EC50 (nM)
SARS-CoV2-NLuc = assay: microbe, parasite or virus in culture; assay type: cell-based, SARS Coronavirus 2; conditions: Severe acute respiratory syndrome coronavirus 2, 48 h, read-out: SARS-CoV2 EC50 (nM)
in vitro [3] = assay type: cell-based; conditions: human
How it was run: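 Uninfected MT4 cells cultured with compound 4–5 days at 37 °C, equilibrated to 25 °C, and viability read by CellTiter-Glo luminescence. Untreated and 2 μM puromycin-treated cells defined 100% and 0% viability; CC50, the concentration reducing viability by 50%, from non-linear regression.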

[4] = system: Caco-2 cells (clone C2BBe1); conditions: human, Caco-2

SMILES | Human Plasma T1/2 [1] | half-life at 2 μM (in vitro [2]) | EC50 (RSV-Luc5) | EC50 (SARS-CoV2-NLuc) | CC50 (in vitro [3]) | Caco2 A to B [4] | Caco2 B to A [4]
CCC(CC)COC(=O)OC[C@H]1O[C@@](C#N)(c2ccc3c(N)ncnn23)[C@@H]2OC(=O)CCCC(=O)O[C@@H]21 [Compound C21, ((7aR,8R,10R,10aR)-10-(4-aminopyrrolo[2,1-f][1,2,4]triazin-7-yl)-10-cyano-2,6-dioxooctahydro-2H-furo[3,4-b][1,4]dioxonin-8-yl)methyl (2-ethylbutyl) carbonate] | 180 s | 38.2 s | 6600 nM | 1440 nM | > 50 µM | – | –
CC(C)C(=O)OC[C@H]1O[C@@](C#N)(c2ccc3c(N)ncnn23)[C@@H]2OC(=O)CCCC(=O)O[C@@H]21 [Compound C54, ((7aR,8R,10R,10aR)-10-(4-aminopyrrolo[2,1-f][1,2,4]triazin-7-yl)-10-cyano-2,6-dioxooctahydro-2H-furo[3,4-b][1,4]dioxonin-8-yl)methyl isobutyrate] | 180 s | 35.3 s | 6040 nM | 7880 nM | > 50 µM | 1 | 2.98
CC(=O)OC[C@H]1O[C@@](C#N)(c2ccc3c(N)ncnn23)[C@@H]2OC(=O)CCCC(=O)O[C@@H]21 [Compound C55, ((7aR,8R,10R,10aR)-10-(4-aminopyrrolo[2,1-f][1,2,4]triazin-7-yl)-10-cyano-2,6-dioxooctahydro-2H-furo[3,4-b][1,4]dioxonin-8-yl)methyl acetate] | 180 s | – | 2070 nM | 3300 nM | > 50 µM | – | –
CCC(=O)OC[C@H]1O[C@@](C#N)(c2ccc3c(N)ncnn23)[C@@H]2OC(=O)CCCC(=O)O[C@@H]21 [Compound C56, ((7aR,8R,10R,10aR)-10-(4-aminopyrrolo[2,1-f][1,2,4]triazin-7-yl)-10-cyano-2,6-dioxooctahydro-2H-furo[3,4-b][1,4]dioxonin-8-yl)methyl propionate] | 180 s | – | 2300 nM | 4580 nM | > 50 µM | – | –
N#C[C@@]1(c2ccc3c(N)ncnn23)O[C@H](COC(=O)OC(CF)CF)[C@H]2OC(=O)CCCC(=O)O[C@H]21 [Compound C27, ((7aR,8R,10R,10aR)-10-(4-aminopyrrolo[2,1-f][1,2,4]triazin-7-yl)-10-cyano-2,6-dioxooctahydro-2H-furo[3,4-b][1,4]dioxonin-8-yl)methyl (1,3-difluoropropan-2-yl) carbonate] | 180 s | 37 s | 9810 nM | 7400 nM | > 50 µM | – | –
N#CC1(COC(=O)OC[C@H]2O[C@@](C#N)(c3ccc4c(N)ncnn34)[C@@H]3OC(=O)CCCC(=O)O[C@@H]32)CC1 [Compound C24, ((7aR,8R,10R,10aR)-10-(4-aminopyrrolo[2,1-f][1,2,4]triazin-7-yl)-10-cyano-2,6-dioxooctahydro-2H-furo[3,4-b][1,4]dioxonin-8-yl)methyl ((1-cyanocyclopropyl)methyl) carbonate] | 180 s | 33.9 s | 7760 nM | 11500 nM | > 50 µM | – | –
N#C[C@@]1(c2ccc3c(N)ncnn23)O[C@H](COC(=O)OC2CCCC2)[C@H]2OC(=O)CCCC(=O)O[C@H]21 [Compound C20, ((7aR,8R,10R,10aR)-10-(4-aminopyrrolo[2,1-f][1,2,4]triazin-7-yl)-10-cyano-2,6-dioxooctahydro-2H-furo[3,4-b][1,4]dioxonin-8-yl)methyl cyclopentyl carbonate] | 180 s | – | 27900 nM | 11700 nM | > 50 µM | – | –
